Results on 17 compounds are retold here after US8952157B2, “Apoptosis-inducing agents for the treatment of cancer and immune and autoimmune diseases” (AbbVie Inc., priority 2008, dated 2015).

Where only a bound is given, the exact number is not on record here.

As usually defined, the Ki is the equilibrium dissociation constant of an inhibitor or competing ligand from its target.

The target of the assay is GST-Bcl-2 (Homo sapiens (Human), UniProt P10415). Briefly: Time Resolved-Fluorescence Resonance Energy Transfer (TR-FRET) Bcl-2 binding assay. As to conditions: GST-Bcl-2 1 nM, F-Bak peptide probe 100 nM, Tb-anti-GST antibody 1 nM; Ki by Wang's equation. The method, then: Determination of the utility of compounds having Formula (I) as binders to and inhibitors of anti-apoptotic Bcl-2 proteins was performed using the Time Resolved-Fluorescence Resonance Energy Transfer (TR-FRET) Assay. Tb-anti-GST antibody was purchased from Invitrogen (Catalog No. PV4216).
Chain of GST-Bcl-2 (P10415 whole entry): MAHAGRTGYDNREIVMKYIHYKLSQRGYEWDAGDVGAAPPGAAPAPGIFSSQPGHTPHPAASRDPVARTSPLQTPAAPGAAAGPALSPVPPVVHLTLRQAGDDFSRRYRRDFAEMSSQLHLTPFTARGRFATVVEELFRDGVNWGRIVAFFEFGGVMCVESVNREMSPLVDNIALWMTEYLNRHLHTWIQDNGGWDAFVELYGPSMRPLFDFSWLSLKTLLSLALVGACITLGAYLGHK
Representative compounds were serially diluted in dimethyl sulfoxide (DMSO) starting at 50 μM (2× starting concentration; 10% DMSO) and 10 μL were transferred into a 384-well plate. The samples are then mixed on a shaker for 1 minute and incubated for an additional 3 hours at room temperature. For each assay, the probe/antibody and protein/probe/antibody were included on each assay plate as negative and positive controls, respectively. Fluorescence was measured on the Envision (Perkin Elmer) using a 340/35 nm excitation filter and 520/525 (F-Bak peptide) and 495/510 nm (Tb-labeled anti-Histidine antibody) emission filters.
The samples were then mixed on a shaker for 1 minute and incubated for an additional 3 hours at room temperature. For each assay, the probe/antibody and protein/probe/antibody were included on each assay plate as negative and positive controls, respectively. Fluorescence was measured on the Envision (Perkin Elmer) using a 340/35 nm excitation filter and 520/525 (F-Bak peptide) and 495/510 nm (Tb-labeled anti-Histidine antibody) emission filters.
The inhibition constant (Ki) is the dissociation constant of an enzyme-inhibitor complex or a protein/small molecule complex, wherein the small molecule is inhibiting binding of one protein to another protein. So a large Ki value indicates a low binding affinity and a small Ki value indicates a high binding affinity.
The compound `CC1(C)CCC(CN2CCN(c3ccc(C(=O)NS(=O)(=O)c4ccc(NCC5CCOCC5)c([N+](=O)[O-])c4)c(Oc4ccc(NCC(F)(F)F)nc4)c3)CC2)=C(c2ccc(Cl)cc2)C1` [Example 385, 4-(4-{[2-(4-chlorophenyl)-4,4-dimethylcyclohex-1-en-1-yl]methyl}piperazin-1-yl)-N-({3-nitro-4-[(tetrahydro-2H-pyran-4-ylmethyl)amino]phenyl}sulfonyl)-2-({6-[(2,2,2-trifluoroethyl)amino]pyridin-3-yl}oxy)benzamide] had a Ki of 49.3 nM.
Compound `CC1(C)CCC(CN2CCN(c3ccc(C(=O)NS(=O)(=O)c4ccc(OCC5CCOCC5)c([N+](=O)[O-])c4)c(Oc4cnc(N)c(Cl)c4)c3)CC2)=C(c2ccc(Cl)cc2)C1` [Example 381, 2-[(6-amino-5-chloropyridin-3-yl)oxy]-4-(4-{[2-(4-chlorophenyl)-4,4-dimethylcyclohex-1-en-1-yl]methyl}piperazin-1-yl)-N-{[3-nitro-4-(tetrahydro-2H-pyran-4-ylmethoxy)phenyl]sulfonyl}benzamide] displayed a Ki of 0.02 nM.
`CC1(C)CCC(CN2CCN(c3ccc(C(=O)NS(=O)(=O)c4ccc(NC5CCN(C6CCOCC6)CC5)c([N+](=O)[O-])c4)c(Nc4ccccc4Cl)c3)CC2)=C(c2ccc(Cl)cc2)C1` [Example 226, 2-[(2-chlorophenyl)amino]-4-(4-{[2-(4-chlorophenyl)-4,4-dimethylcyclohex-1-en-1-yl]methyl}piperazin-1-yl)-N-({3-nitro-4-[(1-tetrahydro-2H-pyran-4-ylpiperidin-4-yl)amino]phenyl}sulfonyl)benzamide]: the inhibition constant (Ki) was 7.59 nM.
To `CC1(C)CCC(CN2CCN(c3ccc(C(=O)NS(=O)(=O)c4ccc(NCC5CCOCC5)c([N+](=O)[O-])c4)c(Oc4cccc5c4CCN(C(=O)OC(C)(C)C)C5)c3)CC2)=C(c2ccc(Cl)cc2)C1` [Example 260, tert-butyl 5-(5-(4-{[2-(4-chlorophenyl)-4,4-dimethylcyclohex-1-en-1-yl]methyl}piperazin-1-yl)-2-{[({3-nitro-4-[(tetrahydro-2H-pyran-4-ylmethyl)amino]phenyl}sulfonyl)amino]carbonyl}phenoxy)-3,4-dihydro isoquinoline-2(H)-carboxylate] belongs 11.8 nM; to `CNc1cccc(Oc2cc(N3CCN(Cc4ccccc4-c4ccc(Cl)cc4)CC3)ccc2C(=O)NS(=O)(=O)c2ccc(NCC3CCOCC3)c([N+](=O)[O-])c2)c1` [Example 2, 4-(4-((4′-chloro-1,1′-biphenyl-2-yl)methyl)piperazin-1-yl)-2-(3-(methylamino)phenoxy)-N-((3-nitro-4-((tetrahydro-2H-pyran-4-ylmethyl)amino)phenyl)sulfonyl)benzamide], 31.5 nM.
As to `CN1CCC(Nc2ccc(S(=O)(=O)NC(=O)c3ccc(N4CCN(CC5=C(c6ccc(Cl)cc6)CC(C)(C)CC5)CC4)cc3Oc3ccc(F)cc3Cl)cc2[N+](=O)[O-])CC1` [Example 61, 2-(2-chloro-4-fluorophenoxy)-4-(4-((2-(4-chlorophenyl)-4,4-dimethylcyclohex-1-en-1-yl)methyl)piperazin-1-yl)-N-((4-((1-methylpiperidin-4-yl)amino)-3-nitrophenyl)sulfonyl)benzamide], the affinity corresponds to a Ki of 0.22 nM.
`CC1(C)CCC(CN2CCN(c3ccc(C(=O)NS(=O)(=O)c4ccc(NCC5COCCO5)c([N+](=O)[O-])c4)c(Oc4cnc(N)c(Cl)c4)c3)CC2)=C(c2ccc(Cl)cc2)C1` (centres unmarked) [Example 346, 2-[(6-amino-5-chloropyridin-3-yl)oxy]-4-(4-{[2-(4-chlorophenyl)-4,4-dimethylcyclohex-1-en-1-yl]methyl}piperazin-1-yl)-N-({4-[(1,4-dioxan-2-ylmethyl)amino]-3-nitrophenyl}sulfonyl)benzamide] gave an inhibition constant (Ki) below 0.01 nM.
As for `CC1(C)CCC(CN2CCN(c3ccc(C(=O)NS(=O)(=O)c4ccc(N[C@H]5CCCN(C6CCOCC6)C5)c([N+](=O)[O-])c4)c(Oc4cc5cc[nH]c5cc4F)c3)CC2)=C(c2ccc(Cl)cc2)C1` [Example 329, 4-(4-{[2-(4-chlorophenyl)-4,4-dimethylcyclohex-1-en-1-yl]methyl}piperazin-1-yl)-2-[(6-fluoro-1H-indol-5-yl)oxy]-N-[(3-nitro-4-{[(3S)-1-tetrahydro-2H-pyran-4-ylpiperidin-3-yl]amino}phenyl)sulfonyl]benzamide], the figure is 0.108 nM.
To `CC1(C)CCC(CN2CCN(c3ccc(C(=O)NS(=O)(=O)c4ccc(NC5CCN(C6CCOCC6)CC5)c([N+](=O)[O-])c4)c(Oc4cccc(F)c4Cl)c3)CC2)=C(c2ccc(Cl)cc2)C1` [Example 178, 2-(2-chloro-3-fluorophenoxy)-4-(4-{[2-(4-chlorophenyl)-4,4-dimethylcyclohex-1-en-1-yl]methyl}piperazin-1-yl)-N-({3-nitro-4-[(1-tetrahydro-2H-pyran-4-ylpiperidin-4-yl)amino]phenyl}sulfonyl)benzamide] belongs 0.175 nM; to `CN(C)CCCNc1ccc(S(=O)(=O)NC(=O)c2ccc(N3CCN(CC4=C(c5ccc(Cl)cc5)CC(C)(C)CC4)CC3)cc2Oc2cccc(Cl)c2)cc1[N+](=O)[O-]` [Example 142, 2-(3-chlorophenoxy)-4-(4-{[2-(4-chlorophenyl)-4,4-dimethylcyclohex-1-en-1-yl]methyl}piperazin-1-yl)-N-[(4-{[3-(dimethylamino)propyl]amino}-3-nitrophenyl)sulfonyl]benzamide], 0.071 nM; to `CC1(C)CCC(CN2CCN(c3ccc(C(=O)NS(=O)(=O)c4ccc(NC5CCN(C6CCOCC6)CC5)c([N+](=O)[O-])c4)c(Oc4cc5cc[nH]c5cc4Cl)c3)CC2)=C(c2ccc(Cl)cc2)C1` [Example 242, 2-[(6-chloro-1H-indol-5-yl)oxy]-4-(4-{[2-(4-chlorophenyl)-4,4-dimethylcyclohex-1-en-1-yl]methyl}piperazin-1-yl)-N-({3-nitro-4-[(1-tetrahydro-2H-pyran-4-ylpiperidin-4-yl)amino]phenyl}sulfonyl)benzamide], 0.092 nM.
In turn, `CN1CCC(Nc2ccc(S(=O)(=O)NC(=O)c3ccc(N4CCN(CC5=C(c6ccc(Cl)cc6)CC(C)(C)CC5)CC4)cc3Oc3cnc(N)c(Cl)c3)cc2S(=O)(=O)C(F)(F)F)CC1` [Example 354, 2-[(6-amino-5-chloropyridin-3-yl)oxy]-4-(4-{[2-(4-chlorophenyl)-4,4-dimethylcyclohex-1-en-1-yl]methyl}piperazin-1-yl)-N-({4-[(1-methylpiperidin-4-yl)amino]-3-[(trifluoromethyl)sulfonyl]phenyl}sulfonyl)benzamide] displayed an inhibition constant (Ki) of 0.114 nM.
`CC1(C)CCC(CN2CCN(c3ccc(C(=O)NS(=O)(=O)c4ccc(NC5CCN(CCc6ccccc6)CC5)c([N+](=O)[O-])c4)c(Oc4cccc(Cl)c4)c3)CC2)=C(c2ccc(Cl)cc2)C1` [Example 163, 2-(3-chlorophenoxy)-4-(4-{[2-(4-chlorophenyl)-4,4-dimethylcyclohex-1-en-1-yl]methyl}piperazin-1-yl)-N-[(3-nitro-4-{[1-(2-phenylethyl)piperidin-4-yl]amino}phenyl)sulfonyl]benzamide] showed a Ki of 0.686 nM.
Consider `CC1(C)CCC(CN2CCN(c3ccc(C(=O)NS(=O)(=O)c4ccc(NCC5CCOCC5)c([N+](=O)[O-])c4)c(Oc4ccc(N)nc4)c3)CC2)=C(c2ccc(Cl)cc2)C1` [Example 272, 2-[(6-aminopyridin-3-yl)oxy]-4-(4-{[2-(4-chlorophenyl)-4,4-dimethylcyclohex-1-en-1-yl]methyl}piperazin-1-yl)-N-({3-nitro-4-[(tetrahydro-2H-pyran-4-ylmethyl)amino]phenyl}sulfonyl)benzamide], for which affinity was put at a Ki of 1.24 nM.
As for `CC1(C)CCC(CN2CCN(c3ccc(C(=O)NS(=O)(=O)c4ccc(NCC5CCOCC5)c([N+](=O)[O-])c4)c(Oc4ccc(O)nc4)c3)CC2)=C(c2ccc(Cl)cc2)C1` [Example 283, 4-(4-{[2-(4-chlorophenyl)-4,4-dimethylcyclohex-1-en-1-yl]methyl}piperazin-1-yl)-2-[(6-hydroxypyridin-3-yl)oxy]-N-({3-nitro-4-[(tetrahydro-2H-pyran-4-ylmethyl)amino]phenyl}sulfonyl)benzamide], the figure is 17.2 nM.
`CN(C)CCCNc1ccc(S(=O)(=O)NC(=O)c2ccc(N3CCN(Cc4ccccc4-c4ccc(Cl)cc4)CC3)cc2Oc2ccccc2Cl)cc1[N+](=O)[O-]` [Example 11, 4-(4-((4′-chloro-1,1′-biphenyl-2-yl)methyl)piperazin-1-yl)-2-(2-chlorophenoxy)-N-((4-((3-(dimethylamino)propyl)amino)-3-nitrophenyl)sulfonyl)benzamide] yielded a Ki of 0.171 nM.
In turn, `CC1(C)CCC(CN2CCN(c3ccc(C(=O)NS(=O)(=O)c4ccc(NCC5CCOCC5)c([N+](=O)[O-])c4)c(Oc4ccc(NC(=O)OC(C)(C)C)nc4)c3)CC2)=C(c2ccc(Cl)cc2)C1` [Example 270, tert-butyl 5-(5-(4-{[2-(4-chlorophenyl)-4,4-dimethylcyclohex-1-en-1-yl]methyl}piperazin-1-yl)-2-{[({3-nitro-4-[(tetrahydro-2H-pyran-4-ylmethyl)amino]phenyl}sulfonyl)amino]carbonyl}phenoxy)pyridin-2-ylcarbamate] came in with a Ki above 1200 nM.
